The results in this text go back to ChEMBL document CHEMBL2449286, “Structure-activity data for a series of P-glycoprotein inhibitors (Supplementary Data to CHEMBL1142990)”.

The EC50 is the concentration giving half of the maximal effect. A high value points to lower potency in that assay.

SMILES strings stand for the structures.

For the assay, the target named is ATP-dependent translocase ABCB1 (Homo sapiens, UniProt P08183).
Chain of ATP-dependent translocase ABCB1 (P08183 whole entry): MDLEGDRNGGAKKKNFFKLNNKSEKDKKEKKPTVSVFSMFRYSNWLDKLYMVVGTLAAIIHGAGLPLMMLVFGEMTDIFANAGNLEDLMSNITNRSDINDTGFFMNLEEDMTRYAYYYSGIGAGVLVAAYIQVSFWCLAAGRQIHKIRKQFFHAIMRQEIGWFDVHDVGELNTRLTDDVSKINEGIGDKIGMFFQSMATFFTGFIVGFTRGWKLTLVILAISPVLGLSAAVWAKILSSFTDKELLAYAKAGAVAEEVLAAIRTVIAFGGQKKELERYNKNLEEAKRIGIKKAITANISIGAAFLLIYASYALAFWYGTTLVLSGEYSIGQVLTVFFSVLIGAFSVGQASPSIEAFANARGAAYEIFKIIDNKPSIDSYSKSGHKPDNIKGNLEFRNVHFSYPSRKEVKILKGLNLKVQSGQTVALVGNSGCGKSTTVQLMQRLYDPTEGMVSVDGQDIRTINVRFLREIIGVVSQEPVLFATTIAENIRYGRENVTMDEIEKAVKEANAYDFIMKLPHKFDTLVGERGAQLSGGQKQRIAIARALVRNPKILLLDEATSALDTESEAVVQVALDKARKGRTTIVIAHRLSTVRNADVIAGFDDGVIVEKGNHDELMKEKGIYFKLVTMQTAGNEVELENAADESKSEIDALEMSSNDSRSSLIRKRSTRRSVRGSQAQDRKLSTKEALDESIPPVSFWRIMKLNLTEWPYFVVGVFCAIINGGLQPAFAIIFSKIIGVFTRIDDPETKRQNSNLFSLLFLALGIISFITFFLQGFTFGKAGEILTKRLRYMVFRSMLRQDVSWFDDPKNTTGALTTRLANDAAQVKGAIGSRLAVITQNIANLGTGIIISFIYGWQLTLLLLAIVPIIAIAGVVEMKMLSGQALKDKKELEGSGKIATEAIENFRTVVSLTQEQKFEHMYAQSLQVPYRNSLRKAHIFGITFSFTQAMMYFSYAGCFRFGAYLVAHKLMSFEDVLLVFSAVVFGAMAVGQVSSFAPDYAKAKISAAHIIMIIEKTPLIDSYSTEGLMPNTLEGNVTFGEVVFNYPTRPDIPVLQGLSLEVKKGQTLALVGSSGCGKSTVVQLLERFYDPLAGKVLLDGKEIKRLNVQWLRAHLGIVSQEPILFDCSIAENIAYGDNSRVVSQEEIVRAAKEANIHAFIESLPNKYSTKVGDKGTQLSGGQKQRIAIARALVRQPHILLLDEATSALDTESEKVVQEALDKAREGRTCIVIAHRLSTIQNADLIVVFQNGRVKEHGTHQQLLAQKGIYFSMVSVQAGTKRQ
Consider `CCCN(C)C[C@@H](O)COc1ccccc1C(=O)CCc1ccccc1`, for which the half-maximal effective concentration (EC50) is 0.417 µM. In the case of `Cc1c([C@H](O)c2ccccc2)c(=O)n(-c2ccccc2)n1C[C@H](O)CN(C(C)C)C(C)C` it was 24 µM; in that of `O=C(CCc1ccccc1)c1ccccc1OC[C@H](O)CNc1ccccc1`, 6.46 µM. The result for `O=C1c2c(cccc2OC[C@H](O)CN2CCCCC2)C[C@@H]1Cc1ccccc1` reads 0.214 µM. In the case of `COc1ccc(OC[C@H](O)CN2CCN(c3ccccc3C)CC2)c(C(C)=O)c1` it was 0.851 µM; in that of `CC(C)O[C@H](CCc1ccccc1)c1ccccc1OC[C@H](O)CN1CCCCC1`, 0.457 µM; in that of `CCCNC[C@@H](O)Cn1c(C)c(C(=O)c2cccs2)c(=O)n1-c1ccccc1`, 95.5 µM. Regarding `CCCNC[C@@H](O)c1oc2ccccc2c1CC`, the EC50 was 11.5 µM.

In turn, `COc1ccc([C@@H]2Nc3ccccc3C(=O)N2c2ccc(NC(C)=O)cc2)cc1` gave an EC50 of 20.9 µM. `CC[C@H](C)c1ccc(N2C(=O)c3ccccc3N[C@H]2c2ccc(C(C)C)cc2)cc1` had a concentration for a half-maximal effect (EC50) of 0.288 µM. The result for `CC(C)[C@@H]1C(=O)O[C@@H]2[C@H](c3cc(C#N)ccc3OC2(C)C)N1C` reads 27.5 µM; that for `CCCNC[C@@H](O)COc1ccc(OCc2ccccc2)cc1C(=O)CCc1ccccc1`, 0.11 µM. The result for `CC1(C)Oc2ccc(C#N)cc2C(NCc2ccccc2)C1O` (stereo not drawn) reads 75.9 µM. In the case of `COc1ccc([C@@H]2Nc3ccccc3C(=O)N2c2ccc(Oc3ccccc3)cc2)cc1` it was 1 µM; in that of `CC(C)(C)OC(=O)C(Cc1ccccc1)N[C@H]1c2cc(C#N)ccc2OC(C)(C)[C@@H]1O` (stereo partly drawn), 0.776 µM; in that of `Cc1c(C(=O)c2ccccc2)c(=O)n(-c2ccccc2)n1C[C@H](O)CN(C(C)C)C(C)C`, 15.8 µM. `O=C(CCc1ccccc1)c1cc(O)ccc1OC[C@H](O)CN1CCCCC1` had an EC50 of 1.74 µM. In the case of `CC(=O)c1ccccc1OC[C@H](O)CN(C(C)C)C(C)C` it was 10 µM. The result for `O[C@H](COc1ccccc1[C@@H](O)CCc1ccccc1)CN1CCCCC1` reads 1.7 µM; that for `COc1ccc(C(=O)CCc2ccccc2)c(OC[C@H](O)CN2CCCCC2)c1`, 0.295 µM.

Consider `O=C(/C=C/c1ccccc1)c1ccccc1OC[C@H](O)CN1CCCCC1`, for which it took 0.316 µM to reach a half-maximal effect (EC50). In the case of `O=C(CCc1ccccc1)c1ccccc1OC[C@H](O)CNc1ccc([N+](=O)[O-])cc1` it was 2.57 µM. `C[C@H](N[C@@H]1c2cc(C#N)ccc2OC(C)(C)[C@H]1O)C(=O)OC(C)(C)C` gave a concentration for a half-maximal effect (EC50) of 45.7 µM. The result for `Cc1c(C(=O)CCc2ccccc2)c(=O)n(-c2ccccc2)n1C[C@H](O)CNC(C)C` reads 11.7 µM; that for `Cc1ccccc1N1CCN(C[C@@H](O)COc2cccc(C(=O)c3ccccc3)c2)CC1`, 0.204 µM. Take `OC(CN1CCCCC1)C1Oc2ccccc2C1CCc1ccccc1` (stereo not drawn): a half-maximal response (EC50) required 0.646 µM.

`CC(C)(C)O[C@H](CCc1ccccc1)c1ccccc1OC[C@H](O)CN1CCCCC1` had an EC50 of 0.398 µM.

The compound `O=C1CCc2cccc(OC[C@H](O)CN3CCCCC3)c21` showed a concentration giving a half-maximal response (EC50) of 9.77 µM. In the case of `CCc1ccc(N2C(=O)c3ccccc3N[C@H]2c2ccc(OCC(C)C)cc2)cc1` it was 1.2 µM. In turn, `CC(=O)c1ccccc1OC[C@H](O)CN1CCCCC1` showed a 50% effective concentration (EC50) of 31.6 µM.

The compound `CC(NC1c2cc(C#N)ccc2OC(C)(C)C1O)C(=O)OC(C)(C)C` (stereo not drawn) gave a 50% effective concentration (EC50) of 29.5 µM. Turning to `Cc1ccccc1N1CCN(C[C@@H](O)COc2ccc(Cl)cc2C(=O)CCc2ccccc2)CC1`, the EC50 was 0.0589 µM.

Consider `O=C(c1ccccc1)c1ccccc1OC[C@@H](O)CN1CCN(C[C@@H](O)COc2ccccc2C(=O)c2ccccc2)CC1`, for which the 50% effective concentration (EC50) is 0.0525 µM. As to `CCN(CC)C[C@@H](O)COc1ccccc1C(=O)CCc1ccccc1`, the EC50 was 0.912 µM. In the case of `Cc1c(C(=O)c2ccccc2)c(=O)n(C)n1C[C@H](O)CN(C(C)C)C(C)C` it was 24 µM; in that of `CC(C)[C@@H](CCl)N(C)[C@H]1c2cc(C#N)ccc2OC(C)(C)[C@@H]1O`, 44.7 µM. In the case of `O=C(CCc1cccc2ccccc12)c1cccc(OC[C@H](O)CN2CCCCC2)c1` it was 0.145 µM; in that of `O=C(CCc1ccccc1)c1ccccc1OC[C@H](O)CN1CCN(C(=O)c2ccccc2)CC1`, 0.129 µM. On to `Cc1cccc(N2CCN(C[C@@H](O)COc3cccc(C(=O)CCc4ccccc4)c3)CC2)c1C`, for which the 50% effective concentration (EC50) was 0.138 µM. The result for `CC1(C)Oc2ccc(C#N)cc2[C@@H]2NC(Cc3ccccc3)C(=O)O[C@H]21` (stereo partly drawn) reads 257 µM. In turn, `Cc1ccc(OC[C@H](O)CN2CCN(c3cccc(C)c3C)CC2)c(C(=O)CCc2ccccc2)c1` showed an EC50 of 0.0562 µM. In the case of `CN[C@@H]1c2cc(C#N)ccc2OC(C)(C)[C@H]1O` it was 1700 µM. In the case of `CC1(C)Oc2ccc(C#N)cc2[C@@H](NCc2ccccc2)[C@@H]1O` it was 58.9 µM. The result for `O=C(CCc1ccccc1)c1ccccc1OC[C@H](O)CN1CCN(c2ccc(F)cc2)CC1` reads 0.0708 µM; that for `O=C1c2c(cccc2OC[C@H](O)CN2CCOCC2)C[C@@H]1Cc1ccccc1`, 0.295 µM.

As to `C[C@H](N[C@H]1c2cc(C#N)ccc2OC(C)(C)[C@@H]1O)C(=O)OC(C)(C)C`, a half-maximal effect (EC50) was put at 14.5 µM. The result for `O=C(CCc1ccccc1)c1ccc(OC[C@H](O)CN2CCN(c3ccc(F)cc3)CC2)cc1` reads 2.51 µM. The result for `Cc1ccc(OC[C@H](O)CN2CCOCC2)c(C(=O)CCc2ccccc2)c1` reads 1.66 µM.

As for `Cc1ccc(C(=O)N2c3ccccc3[C@@H](N3CCCC3)[C@@H](O)[C@H]2C)cc1`, a half-maximal effect (EC50) was put at 7.94 µM.

`O=C(CCc1ccccc1)c1ccccc1OC[C@H](O)CN1CCC(O)(c2ccccc2)CC1` gave an EC50 of 0.0575 µM. `CC(C)N(C[C@@H](O)COc1ccc(OCc2ccccc2)cc1C(=O)CCc1ccccc1)C(C)C` gave a half-maximal effective concentration (EC50) of 0.0813 µM. In the case of `O=C(CCc1cccc2ccccc12)c1ccc(OC[C@H](O)CN2CCOCC2)cc1` it was 1.55 µM; in that of `Cc1cccc(N2CCN(C[C@@H](O)COc3ccc(C(=O)CCc4ccccc4)cc3)CC2)c1C`, 0.229 µM; in that of `CO[C@H](CCc1ccccc1)c1ccccc1OC[C@H](O)CN1CCN(c2ccc(F)cc2)CC1`, 0.224 µM.

`COc1ccc(OC[C@H](O)CN2CCN(c3ccccc3C)CC2)c(C(=O)CCc2ccccc2)c1` gave an EC50 of 0.178 µM. The compound `CCN(CC)CCC[C@H](C)N[C@@H]1c2ccccc2N[C@H](C)[C@@H]1OC(=O)c1ccc(C)cc1` gave an EC50 of 0.331 µM. In the case of `O=C(CCc1ccccc1)c1ccccc1OC[C@H](O)CN[C@@H](c1ccccc1)C1CCCCC1` it was 0.145 µM; in that of `CC(C)[C@@H](C(=O)OC(C)(C)C)N(C)[C@H]1c2cc(C#N)ccc2OC(C)(C)[C@@H]1O`, 1.35 µM. In the case of `CC1(C)Oc2ccc(C#N)cc2[C@H]2N[C@@H](Cc3ccccc3)C(=O)O[C@@H]21` it was 2.69 µM; in that of `CC(C)[C@H]1N[C@H]2c3cc(C#N)ccc3OC(C)(C)[C@@H]2OC1=O`, 9.55 µM; in that of `COc1ccc(N2CCN(C[C@@H](O)COc3cccc4c3C(=O)[C@@H](Cc3ccccc3)C4)CC2)cc1`, 0.389 µM. The result for `Cc1nn(C)c(OC[C@H](O)CN(C(C)C)C(C)C)c1C(=O)c1ccccc1` reads 1.2 µM; that for `C[C@H]1c2ccccc2O[C@H]1CN1CCCCC1`, 49 µM.
